In patent US20240400572A1, “COMPOUNDS AND METHODS FOR TREATING CANCERS THAT ARE MGMT DEFICIENT REGARDLESS OF MMR STATUS” (Yale University, priority 2021, published 2024):

What was measured:
[1] = system: BJ fibroblast cells; assay: Short-term cell viability in normal fibroblasts; format: cell-based, human; conditions: KL-50 compared with TMZ
Description: Cell Culture. LN229 MGMT− and MGMT+ cell lines were a gift from B. Kaina (Johannes Gutenberg University Mainz, Mainz, Germany) and grown in DMEM with 10% FBS (Gibco). DLD1 BRCA2+/− and BRCA2−/− cell lines (Horizon Discovery, Cambridge, UK) were grown in RPMI 1640 with 10% FBS. HCT116 MLH1−/− and HCT116+Chr3 cell lines were a gift from T. Kunkel (National Institute of Environmental Health Sciences, Durham, NC) and grown in DMEM with 10% FBS, with […] G418 (Sigma) for HCT116+Chr3 cells. PD20 cell lines complemented with empty vector (+EV), wildtype FANCD2 (+FD2), or K561R ubiquitination-mutant FANCD2 (+KR) were a gift from G. Kupfer and P. Glazer (Yale University, New Haven, CT) and growth in DMEM with 10% FBS. PEO1 and PEO4 cell lines were a gift from T. Taniguchi (Fred Hutchinson Cancer Research Center, Seattle, WA) and were grown in DMEM with 10% FBS. BJ fibroblasts (normal human fibroblast cells) were purchased from ATCC (CRL-2522) and grown in DMEM with 10% FBS. […] All human cell lines were validated by short tandem repeat profiling (excluding BJ fibroblasts which were used within 6 passages of receiving from ATCC) and confirmed negative for mycoplasma by quantitative RT-PCR.
Short-term Cell Viability Assay. […] Cells were imaged on a Cytation 3 imaging reader (BioTek) and quantified using CellProfiler software.

[2] = system: linearized pUC19 plasmid DNA; assay: In vitro DNA cross-linking assay; format: biochemical; conditions: 100 μM, 6-36 hours
Description: Plasmid Linearization Assay. To set up the linearization reactions, 20 units of EcoRI-HF (New England Biolabs) was mixed with 20 μg 2686 bp pUC19 vector DNA in CutSmart buffer (New England Biolabs), pH 7.9, in a total volume of 1000 μL for 30 min at 37° C. The CutSmart buffer contains 50 mM potassium acetate, 20 mM Tris acetate, 10 mM magnesium acetate, and 100 μg/mL BSA. The reacted DNA was then purified using PCR cleanup kit and quantified using the NanoDrop One (Thermo Fisher). The DNA was then stored at −20° C. before use in in vitro DNA cross-linking assays or melting temperature analysis.
In Vitro DNA Cross-linking Assays. Linearized pUC19 DNA, prepared as described above, was used for in vitro DNA cross-linking assays. For each condition, 200 ng of linearized pUC19 DNA (15.4 μM base pairs) was incubated with the indicated concentration of drug in 20 μL. Drug stock concentrations were made in DMSO such that each reaction contained a fixed 5% DMSO concentration. Reactions were conducted in 100 mM Tris buffer (pH 7.4). Cisplatin (Sigma) and DMSO vehicle were used as positive and negative controls, respectively. Reactions were conducted between 3-96 h at 37° C. The DNA was stored at −80° C. until electrophoretic analysis. For gel electrophoresis, DNA concentration was preadjusted to 10 ng/μL. […]

[3] = system: LN229 MGMT+/−, MMR+/− isogenic lines; assay: Short-term cell viability assay with ROS scavenger NAC; format: cell-based, human; conditions: pre-treated with increasing concentrations of NAC
Description: FIGS. ZS5A-ZS5D. […] Columns, mean; error bars, SD; n=2 independent analyses. For (FIG. ZS5A) and (FIG. ZS5C), points, mean; error bars, SD; n=3 technical replicates.
Short-term Cell Viability Assay. Cells were seeded in 96-well plates at 1000 or 2000 cells/well and allowed to adhere at 23° C. for 60 min and then incubated overnight at 37° C. Cells were treated with indicated concentrations of compounds in triplicate for 4-6 days prior to fixation with 3.7% paraformaldehyde and nuclear staining with 1 μg/mL Hoechst 33342 dye. Cells were imaged on a Cytation 3 imaging reader (BioTek) and quantified using CellProfiler software.

[4] = system: linearized pUC19 plasmid DNA; assay: Melting temperature assay; format: biochemical; conditions: 100 or 500 μM for 3 h
Description: Melting Temperature Assay. Linearized pUC19 DNA (750 ng), prepared as described above, was incubated with the indicated concentration of either MMS or KL-50 (4a) adjusted in a final volume of 18 μL in 100 mM Tris buffer (pH 7.4) for 3 h. Drug stock concentrations were made in DMSO such that each reaction contained a fixed 5% DMSO concentration. Afterwards, 1 μL each of 20× SYBR Green dye (Invitrogen) and 20× ROX reference dye (Invitrogen) was added and melting temperature analysis was run on a StepOnePlus RT PCR System (Applied Biosciences) to generate melting temperature curves.

[5] = Maximum tolerated dose study; format: in vivo
Description: Healthy mice were treated with escalating doses of KL-50 (4a) (0, 25, 50, 100, and 200 mg/kg×1 dose), and monitored over time for changes in both weights and hematologic profiles. […] As the main dose limiting systemic toxicity of TMZ (1a) is myelosuppression, we measured complete blood counts for all mice on day 0 before treatment and subsequently on day 7 after drug administration.

NC(=O)c1ncn2c(=O)n(CCF)nnc12 [KL-50, 3-(2-fluoroethyl)-4-oxo-3H,4H-imidazo[4,3-d][1,2,3,5]tetrazine-8-carboxamide]
cytotoxicity in normal human fibroblast cells (in words) [1]: no increase in toxicity | ICLs in plasmid DNA (in words) [2]: possessed ICLs, with delayed rates of formation relative to 12b | rescue of toxicity by NAC (in words) [3]: did not result in rescue | change in DNA melting temperature (in words) [4]: comparable changes in measured DNA melting temperature | mice observably ill warranting euthanasia ([5]; 200 mg/kg × 1 dose): Two of three mice | weight loss ([5]; 100 or 200 mg/kg × 1 dose, regressed to baseline at the end of one week): greater than 10% | toxicity in the remaining cohorts (in words) ([5]; cohorts below 200 mg/kg × 1 dose): no evidence of toxicity | complete blood counts (in words) ([5]; day 7 after drug administration, all cohorts): within normal physiological ranges | tolerability (in words) ([5]; healthy mice, 0, 25, 50, 100, and 200 mg/kg × 1 dose): well-tolerated
